Measured values from patent US8575197B2, “Pyrolinone derivative and pharmaceutical composition comprising the same” (Shionogi & Co., Ltd., priority 2008, dated 2013).

These molecules were tested against human P2X3 receptor (Homo sapiens (Human), UniProt P56373) (assay: P2X3 receptor inhibition, ATP-evoked Fluo-3 calcium fluorescence (FDSS 3000)). Settings: C6BU-1 cell transfected with human P2X3 receptor gene; ATP-evoked Fluo-3 fluorescence.
human P2X3 receptor, sequence (P56373 whole entry): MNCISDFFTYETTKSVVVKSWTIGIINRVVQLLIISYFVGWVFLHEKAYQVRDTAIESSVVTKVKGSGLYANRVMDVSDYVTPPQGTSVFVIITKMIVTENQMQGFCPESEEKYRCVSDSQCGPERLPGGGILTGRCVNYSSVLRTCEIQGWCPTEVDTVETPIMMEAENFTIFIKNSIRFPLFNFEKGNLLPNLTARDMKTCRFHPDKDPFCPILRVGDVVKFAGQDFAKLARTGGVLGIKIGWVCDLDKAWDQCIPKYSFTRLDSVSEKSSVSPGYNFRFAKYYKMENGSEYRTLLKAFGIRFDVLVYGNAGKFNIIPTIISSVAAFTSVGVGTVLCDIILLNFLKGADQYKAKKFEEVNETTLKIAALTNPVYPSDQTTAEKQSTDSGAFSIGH
Format: cell-based
Protocol: Stably expressing cell line (C6BU-1 cell transfected with human P2X3 receptor gene (GenBank accession number Y07683)) was used. The cells were seeded in a 96-well microtiter plate at a concentration of 8000 cells/well and cultured in the medium (8.3% fetal bovine serum, 8.3% horse serum, 1% antibiotic and antifungal in DMEM) for one day at 37° C. under 5% carbon dioxide atmosphere. The medium was replaced with 4 μM Fluo-3-AM solution (pH7.5) containing 20 mM HEPES, 137 mM NaCl, 2.7 mM KCl, 0.9 mM MgCl2, 5.0 mM CaCl2, 5.6 mM D-glucose, 2.5 mM probenecid, 10% BSA, and 0.08% Pluronic F-127, and incubated at 37° C. under 5% dioxide carbon atmosphere for one hour. The plate was washed with washing buffer (20 mM HEPES, 137 mM NaCl, 2.7 mM KCl, 0.9 mM MgCl2, 5.0 mM CaCl2, 5.6 mM D-glucose, 2.5 mM probenecid, pH7.5), and each well was added with 40 μL of this buffer. The plate was placed in High-Throughput Screening System FDSS 3000 (Hamamatsu Photonics K.K.). Measurement of fluorescence intensity by FDSS 3000 was started, and 40 μL of DMSO solutions containing different concentrations of the test compound as prepared by dilution with dilution buffer (20 mM HEPES, 137 mM NaCl, 2.7 mM KCl, 0.9 mM MgCl2, 5.0 mM CaCl2, 5.6 mM D-glucose, 2.5 mM probenecid, 0.1% Pluronic F-127, pH7.5) were dispensed to each well through the built-in automatic dispenser. Five minutes after, 40 nM ATP solution (50 μL) prepared by dilution with the dilution buffer was dispensed through the built-in automatic dispenser, and the measurement of fluorescence intensity was continued for 3 min. For each well, the specific maximum fluorescence intensity was calculated as the ratio of the maximum fluorescence intensity after addition of the ATP solution to the fluorescence intensity at the starting of the measurement. […] FDSS software (Hamamatsu Photonics K.K.) was used for calculation of the specific maximum fluorescence intensity. IC50 was calculated using Microsoft™ Excel™ (Microsoft Corporation) and XLfit™ (ID Business Solutions Ltd.).
With `CC(C)(C)C(=O)C1=C(O)C(=O)N(c2ccc(-c3ccsc3)cc2)C1c1ccccc1OCC(N)=O` (centres unmarked) [Compound I-151] the IC50 was 8 nM. With `COc1ccccc1C1c2c(C(C)(C)C)n[nH]c2C(=O)N1c1ccc(OC(C)C)cc1` (centres unmarked) [II-002] the IC50 was 217 nM. Molecule `Cc1ccc(-c2ccc(N3C(=O)C(O)=C(C(=O)CC(C)C)C3c3ccccc3OC(C)C)cc2)o1` (centres unmarked) [Compound I-398] has an IC50 of 14 nM. With `Cc1ccc(-c2ccc(N3C(=O)C(O)=C(C(=O)CC(C)C)C3c3ccccc3C(=O)N3CCOCC3)cc2)o1` (centres unmarked) [Compound I-506] the IC50 was 112 nM. In the case of `CC(C)Oc1ccccc1C1C(C(=O)C(C)C)=C(O)C(=O)N1c1ccc(N2CCCC2)cc1` (centres unmarked) [Compound I-459], the IC50 is reported as 26 nM. Molecule `CC(C)C(=O)C1=C(O)C(=O)N(c2ccc(-c3ccoc3)cc2)C1c1cccnc1OCCO` (centres unmarked) [Compound I-233] has an IC50 of 124 nM. Work on `Cc1cc(-c2ccc(N3C(=O)C(O)=C(C(=O)C(C)C)C3c3ccccc3OCC3OCCO3)cc2)cs1` (centres unmarked) [Compound I-500] yielded an IC50 of 12 nM. In the case of `COCCOc1ncccc1C1C(C(=O)C2CCCC2)=C(O)C(=O)N1c1ccc(-c2ccsc2)cc1` (centres unmarked) [Compound I-517], the IC50 is reported as 26 nM. `Cc1ccc(-c2ccc(N3C(=O)C(O)=C(C(=O)CC(C)C)C3c3ccccc3OC(C)C)cc2)s1` (centres unmarked) [Compound I-402] showed an IC50 of 80 nM. `CC(C)C(=O)C1=C(O)C(=O)N(c2ccc(-c3ccsc3)cc2)C1c1cccnc1OCCO` (centres unmarked) [Compound I-176] showed an IC50 of 46 nM. `CC(C)CC(=O)C1=C(O)C(=O)N(c2ccc(-c3ccoc3)cc2)C1c1ccccc1OCCO` (centres unmarked) [Compound I-350] gave an IC50 of 66 nM. `COc1ccc(-c2n[nH]c3c2C(c2ccccc2OC)N(CCc2ccco2)C3=O)cc1` (centres unmarked) [II-225] gave an IC50 of 979 nM. `COc1ccccc1C1C(C(=O)CC(C)(C)C(=O)O)=C(O)C(=O)N1c1ccc(-c2ccsc2)cc1` (centres unmarked) [Compound I-557] showed an IC50 of 444 nM. `COCCOc1ncccc1C1C(C(=O)C(C)C)=C(O)C(=O)N1c1ccc(-c2ccc(C)o2)cc1` (centres unmarked) [Compound I-357] showed an IC50 of 20 nM. `COc1ccccc1C1c2c(C(C)C)n[nH]c2C(=O)N1c1ccc(-c2ccsc2)c(NC(C)=O)c1` (centres unmarked) [II-237] gave an IC50 of 853 nM. `CC(C)C(=O)C1=C(O)C(=O)N(c2ccc(-c3ccsc3)cc2)C1c1ccccc1OCC#N` (centres unmarked) [Compound I-183] was tested, and the IC50 was 4 nM. `Cc1ccc(-c2ccc(N3C(=O)C(O)=C(C(=O)C(C)C)C3c3ccccc3C(=O)N3CCOCC3)cc2)o1` (centres unmarked) [Compound I-549] gave an IC50 of 213 nM. Work on `COCCCOc1ncccc1C1C(C(=O)C(C)C)=C(O)C(=O)N1c1ccc(-c2ccsc2)cc1` (centres unmarked) [Compound I-565] yielded an IC50 of 13 nM. Work on `CC(C)(C)c1n[nH]c2c1C(c1ccccc1OCC(N)=O)N(c1ccc(-c3ccon3)cc1)C2=O` (centres unmarked) [II-075] yielded an IC50 of 153 nM. Work on `COCCOc1ccccc1C1C(C(=O)CC(C)C)=C(O)C(=O)N1c1ccc(-c2ccoc2)cc1` (centres unmarked) [Compound I-348] yielded an IC50 of 55 nM. For `COc1ccccc1C1C(C(=O)CC(C)C)=C(O)C(=O)N1c1ccc(-c2ccc(C)o2)cc1` (centres unmarked) [Compound I-383], the IC50 was 36 nM. In the case of `COc1ccccc1C1C(C(=O)C(C)C)=C(O)C(=O)N1c1ccc(-c2ccsc2)c(N(C)C)c1` (centres unmarked) [Compound I-242], the IC50 is reported as 357 nM. Molecule `COCCOc1ncccc1C1C(C(=O)C(C)C)=C(O)C(=O)N1c1ccc(-c2ccsc2)cc1` (centres unmarked) [Compound I-169] has an IC50 of 19 nM. `COc1ccc(C(=O)C2=C(O)C(=O)N(c3ccc(-c4nc(C)no4)cc3)C2c2ccccc2OC)cc1` (centres unmarked) [Compound I-032] was tested, and the IC50 was 160 nM. `COc1ncccc1C1C(C(=O)CC(C)C)=C(O)C(=O)N1c1ccc(-c2ccsc2)cc1` (centres unmarked) [Compound I-291] showed an IC50 of 130 nM. Work on `COCCOc1ncccc1C1C(C(=O)C(C)(C)C)=C(O)C(=O)N1c1ccc(-c2ccon2)cc1` (centres unmarked) [Compound I-139] yielded an IC50 of 930 nM. `Cc1ccc(-c2ccc(N3C(=O)C(O)=C(C(=O)CC(C)C)C3c3ccccc3OCCO)cc2)s1` (centres unmarked) [Compound I-328] showed an IC50 of 65 nM. `Cc1nc(-c2ccc(N3C(=O)C(O)=C(C(=O)C(C)C)C3c3ccccc3OCCO)cc2)no1` (centres unmarked) [Compound I-277] was tested, and the IC50 was 342 nM. In the case of `COc1ncccc1C1C(C(=O)C(C)C)=C(O)C(=O)N1c1ccc(-c2csc(C)c2)cc1` (centres unmarked) [Compound I-320], the IC50 is reported as 274 nM. `COc1ccc(C(=O)C2=C(O)C(=O)N(c3ccc(-c4cccn4C)cc3)C2C2CCCCC2)cc1` (centres unmarked) [Compound I-014] gave an IC50 of 134 nM. Work on `COCOc1ccccc1C1C(C(=O)C(C)C)=C(O)C(=O)N1c1ccc(-c2cccs2)cc1` (centres unmarked) [Compound I-227] yielded an IC50 of 8 nM. Work on `COCCOc1ccccc1C1C(C(=O)C(C)C)=C(O)C(=O)N1c1ccc(-c2cscn2)cc1` (centres unmarked) [Compound I-417] yielded an IC50 of 181 nM. For `COCc1ccccc1C1C(C(=O)C(C)C)=C(O)C(=O)N1c1ccc2c(c1)cc(C)n2C` (centres unmarked) [Compound I-353], the IC50 was 210 nM. Work on `Cc1nc(-c2ccc(N3C(=O)C(O)=C(C(=O)C(C)C)C3c3ccccc3OC(F)(F)F)cc2)no1` (centres unmarked) [Compound I-314] yielded an IC50 of 329 nM. With `Cc1cc(-c2ccc(N3C(=O)C(O)=C(C(=O)CC(C)C)C3c3ccccc3OC(F)(F)F)cc2)on1` (centres unmarked) [Compound I-344] the IC50 was 594 nM. With `COc1ccccc1C1c2c(C3(CO)CCCCC3)n[nH]c2C(=O)N1c1ccc(-c2ccon2)cc1` (centres unmarked) [II-064] the IC50 was 75 nM. Molecule `CC(C)C(=O)C1=C(O)C(=O)N(c2ccc(-c3ccsc3)cc2)C1c1ccccc1OCCN(C)C` (centres unmarked) [Compound I-158] has an IC50 of 23 nM. Molecule `CC(C)C(=O)C1=C(O)C(=O)N(c2ccc(-c3ccco3)cc2)C1c1ccccc1OCCO` (centres unmarked) [Compound I-225] has an IC50 of 65 nM. `COc1ncccc1C1c2c(C(C)(C)C)n[nH]c2C(=O)N1c1ccc(-c2cc(C)no2)cc1` (centres unmarked) [II-191] showed an IC50 of 322 nM. For `Cc1ncccc1C1C(C(=O)C(C)(C)C)=C(O)C(=O)N1c1ccc(-c2ccsc2)cc1` (centres unmarked) [Compound I-143], the IC50 was 331 nM. `CC(C)(C)C(=O)C1=C(O)C(=O)N(c2ccc(-c3cccs3)cc2)C1c1cccc[n+]1[O-]` (centres unmarked) [Compound I-112] showed an IC50 of 388 nM. Molecule `COc1ccccc1C1C(C(=O)C2(CO)CCCCC2)=C(O)C(=O)N1c1ccc(-c2ccon2)cc1` (centres unmarked) [Compound I-031] has an IC50 of 700 nM. `COc1ncccc1C1c2c(C(C)(C)C)n[nH]c2C(=O)N1c1ccc(-c2nccs2)cc1` (centres unmarked) [II-193] showed an IC50 of 195 nM. `Cc1ccc(-c2ccc(N3C(=O)C(O)=C(C(=O)C(C)C)C3c3ccccc3S(C)(=O)=O)cc2)o1` (centres unmarked) [Compound I-548] was tested, and the IC50 was 77 nM. Molecule `COc1ccccc1C1C(C(=O)C(C)(C)C)=C(N)C(=O)N1c1ccc(-c2ccon2)cc1` (centres unmarked) [Compound I-102] has an IC50 of 134 nM. `CC(C)c1n[nH]c2c1C(c1ccccc1CC(=O)O)N(c1ccc(-c3ccsc3)cc1)C2=O` (centres unmarked) [II-094] was tested, and the IC50 was 65 nM. Work on `COCc1ccccc1C1C(C(=O)CC2CCCC2)=C(O)C(=O)N1c1ccc(-c2ccsc2)cc1` (centres unmarked) [Compound I-439] yielded an IC50 of 116 nM. `COCCOc1cccc(C2C(C(=O)C(C)C)=C(O)C(=O)N2c2ccc(-c3ccsc3)cc2)c1` (centres unmarked) [Compound I-286] was tested, and the IC50 was 669 nM. With `COCCOc1ncccc1[C@@H]1C(C(=O)C(C)C)=C(O)C(=O)N1c1ccc(-c2ccsc2)cc1` [Compound I-395] the IC50 was 6 nM. With `Cc1nc(-c2ccc(N3C(=O)C(O)=C(C(=O)C(C)C)C3c3ccccc3OCC(C)C)cc2)no1` (centres unmarked) [Compound I-451] the IC50 was 19 nM. `CC(C)CC(=O)C1=C(O)C(=O)N(c2ccc(-c3ccon3)cc2)C1c1ccccc1OC(F)(F)F` (centres unmarked) [Compound I-308] was tested, and the IC50 was 193 nM. Molecule `COCCOc1ccccc1[C@H]1C(C(=O)C(C)C)=C(O)C(=O)N1c1ccc(-c2ccoc2)cc1` [Compound I-209] has an IC50 of 234 nM. With `COCc1ccccc1C1C(C(=O)C(C)C)=C(O)C(=O)N1c1ccc(-c2ccccc2)cc1` (centres unmarked) [Compound I-282] the IC50 was 472 nM. `COc1ccccc1C1c2c(C(C)(C)CO)n[nH]c2C(=O)N1c1ccc(-c2cccs2)cc1` (centres unmarked) [II-218] showed an IC50 of 5 nM. `CC(C)c1n[nH]c2c1C(c1ccccc1OCC(=O)NN)N(c1ccc(-c3ccsc3)cc1)C2=O` (centres unmarked) [II-051] was tested, and the IC50 was 5 nM. In the case of `COc1ccccc1C1c2c(C(C)(C)C)n[nH]c2C(=O)N1c1ccc(-c2csc(C)c2)cc1` (centres unmarked) [II-274], the IC50 is reported as 19 nM. For `COc1ccccc1C1C(C(=O)C(C)(C)C)=C(O)C(=O)N1c1ccc(-c2csc(C)c2)cc1` (centres unmarked) [Compound I-197], the IC50 was 36 nM. Molecule `CC(C)C(=O)C1=C(O)C(=O)N(c2ccc(-c3ccsc3)cc2)C1c1ccccc1C#N` (centres unmarked) [Compound I-244] has an IC50 of 27 nM. `CC(C)c1n[nH]c2c1C(c1cccnc1OCC(N)=O)N(c1ccc(-c3ccsc3)cc1)C2=O` (centres unmarked) [II-054] showed an IC50 of 26 nM. With `COCc1ccccc1C1C(C(=O)C(C)C)=C(O)C(=O)N1c1ccc(-c2csc(C)n2)cc1` (centres unmarked) [Compound I-425] the IC50 was 697 nM. Work on `COCCOc1ccccc1C1C(C(=O)CC(C)C)=C(O)C(=O)N1c1ccc(-c2csc(C)c2)cc1` (centres unmarked) [Compound I-375] yielded an IC50 of 30 nM. Work on `COC(=O)COCc1ncccc1C1C(C(=O)C(C)(C)C)=C(O)C(=O)N1c1ccc(-c2ccsc2)cc1` (centres unmarked) [Compound I-181] yielded an IC50 of 114 nM.
